Values joined by “and” are separate entries in the source; they are usually repeats but may differ in a detail not shown here. Identical values can stand only once.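 How tested: cells in 96-well plates exposed to compound for 48 hours at five concentrations. GI50 = concentration required for 50% inhibition of growth.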 Active and inactive are the calls of the source. Cut-off read from the data, not from the text of the source: active = GI50 up to about 1.1 µM and inactive = higher.
Assays:
Assay in all cases: inhibition of tumour cell growth, NCI panel, 48 h
HOP-92 = system: HOP-92
UACC-62 = system: UACC-62
HCC 2998 = system: HCC 2998
SW-620 = system: SW-620
CAKI-1 = system: CAKI-1
RPMI-8226 = system: RPMI-8226
COLO 205 = system: COLO 205
NCI-H522 = system: NCI-H522
KM12 = system: KM12
A498 = system: A498
UO-31 = system: UO-31
U-251 = system: U-251
OVCAR-5 = system: OVCAR-5
SF-295 = system: SF-295
MDA-MB-435 = system: MDA-MB-435
SK-OV-3 = system: SK-OV-3
HOP-62 = system: HOP-62
HCT-116 = system: HCT-116
NCI-H23 = system: NCI-H23
NCI-H460 = system: NCI-H460
CCRF-CEM = system: CCRF-CEM
A549 = system: A549
IGROV-1 = system: IGROV-1
OVCAR-3 = system: OVCAR-3
SK-MEL-5 = system: SK-MEL-5
SNB-19 = system: SNB-19
HT-29 = system: HT-29
PC-3 = system: PC-3
MOLT-4 = system: MOLT-4
SK-MEL-28 = system: SK-MEL-28
UACC-257 = system: UACC-257
HCT-15 = system: HCT-15
OVCAR-4 = system: OVCAR-4
K562 = system: K562
MDA-N = system: MDA-N
SNB-75 = system: SNB-75
SK-MEL-2 = system: SK-MEL-2
BT-549 = system: BT-549
ACHN = system: ACHN
MDA-MB-231 = system: MDA-MB-231
TK-10 = system: TK-10
M14 = system: M14
NCI-H226 = system: NCI-H226
OVCAR-8 = system: OVCAR-8
SN12C = system: SN12C
EKVX = system: EKVX
NCI/ADR-RES = system: NCI/ADR-RES
DU-145 = system: DU-145
Malme-3M = system: Malme-3M

Structure (SMILES): CC(=O)OC1COC(n2c3ccccc3c3ccc4c5ccccc5[nH]c4c32)C(OC(C)=O)C1OC(C)=O (stereo unspecified)
- GI50 (HOP-92): 30.1 µM (inactive)
- GI50 (UACC-62): 67.9 µM (inactive)
- GI50 (HCC 2998): 61.8 µM (inactive)
- GI50 (SW-620): 41.2 µM (inactive)
- GI50 (CAKI-1): 29.2 µM (inactive)
- GI50 (RPMI-8226): 95.7 µM (inactive)
- GI50 (COLO 205): 39.1 µM (inactive)
- GI50 (NCI-H522): 18.2 µM (inactive)
- GI50 (KM12): 17.8 µM (inactive)
- GI50 (A498): 32.8 µM (inactive)
- GI50 (UO-31): 38.6 µM (inactive)
- GI50 (U-251): 29.2 µM (inactive)
- GI50 (OVCAR-5): 23.4 µM (inactive)
- GI50 (SF-295): 15.1 µM (inactive)
- GI50 (MDA-MB-435): 39.1 µM (inactive)
- GI50 (SK-OV-3): 18.6 µM (inactive)
- GI50 (HOP-62): 22.9 µM (inactive)
- GI50 (HCT-116): 65.9 µM (inactive)
- GI50 (NCI-H23): 36.8 µM (inactive)
- GI50 (NCI-H460): 21.3 µM (inactive)
- GI50 (CCRF-CEM): 70.3 µM (inactive)
- GI50 (A549): 44.8 µM (inactive)
- GI50 (IGROV-1): 0.0512 µM (active)
- GI50 (OVCAR-3): 27 µM (inactive)
- GI50 (SK-MEL-5): 36 µM (inactive)
- GI50 (SNB-19): 61.4 µM (inactive)
- GI50 (HT-29): 22.3 µM (inactive)
- GI50 (PC-3): 27.2 µM (inactive)
- GI50 (MOLT-4): > 100 µM (inactive)
- GI50 (SK-MEL-28): 37.8 µM (inactive)
- GI50 (UACC-257): > 100 µM (inactive)
- GI50 (HCT-15): 70 µM
- GI50 (OVCAR-4): 37.6 µM (inactive)
- GI50 (K562): 0.6 µM (active)
- GI50 (MDA-N): 53.3 µM (inactive)
- GI50 (SNB-75): 0.29 µM (active)
- GI50 (SK-MEL-2): 58.1 µM (inactive)
- GI50 (BT-549): 89.3 µM (inactive)

Structure (SMILES): CC(=O)OCC1OC(n2c3c(cc(C#N)c2=S)CCCC3)C(OC(C)=O)C(OC(C)=O)C1OC(C)=O (stereo unspecified)
- GI50 (ACHN): > 64.4 µM (inactive)
- GI50 (COLO 205): > 100 µM (inactive)
- GI50 (NCI-H522): 42.8 µM (inactive) and 40.8 µM (inactive)
- GI50 (A498): > 100 µM (inactive)
- GI50 (MDA-MB-231): > 100 µM (inactive)
- GI50 (TK-10): > 100 µM (inactive)
- GI50 (UO-31): > 100 µM (inactive)
- GI50 (M14): > 100 µM (inactive)
- GI50 (OVCAR-5): > 100 µM (inactive)
- GI50 (NCI-H226): > 100 µM (inactive) and > 80 µM (inactive)
- GI50 (MDA-MB-435): > 100 µM (inactive)
- GI50 (OVCAR-8): > 60.5 µM (inactive)
- GI50 (NCI-H23): > 100 µM (inactive) and 62.5 µM (inactive)
- GI50 (NCI-H460): > 100 µM (inactive) and 50.9 µM (inactive)
- GI50 (SN12C): > 100 µM (inactive)
- GI50 (A549): > 91.4 µM (inactive)
- GI50 (IGROV-1): 57.8 µM (inactive)
- GI50 (EKVX): 70 µM (inactive)
- GI50 (NCI/ADR-RES): > 74.1 µM (inactive)
- GI50 (SK-MEL-5): > 76.4 µM (inactive)
- GI50 (SK-MEL-28): > 100 µM (inactive)
- GI50 (DU-145): > 100 µM (inactive)
- GI50 (UACC-257): > 100 µM (inactive)
- GI50 (HCT-15): > 100 µM
- GI50 (OVCAR-4): > 100 µM (inactive)
- GI50 (MDA-N): > 100 µM (inactive)
- GI50 (Malme-3M): > 100 µM (inactive)
- GI50 (BT-549): > 100 µM (inactive)

Reference: ChEMBL document CHEMBL1201862, “PubChem BioAssay data set” (2004)
